Reference: ChEMBL document CHEMBL1201861, “Genomics of Drug Sensitity in Cancer screening data, Wellcome Trust Sanger Institute”
Where “and” joins values, the source holds several entries; their conditions need not be identical. Equal entries are not always repeated. Where a SMILES comes first, the peptide text is derived from it. The star is where a group is joined. Cbz = O=C(OCc1ccccc1)*

Experiments:
Assay in all cases: cells
COR-L88 = type: functional, cell-based, Homo sapiens
Description: SANGER: Inhibition of human COR-L88 cell growth in a cell viability assay.

DJM-1 = type: functional, cell-based, Homo sapiens
Description: SANGER: Inhibition of human DJM-1 cell growth in a cell viability assay.

DMS-114 = type: functional, cell-based, Homo sapiens
EW-11 = type: functional, cell-based, Homo sapiens
Description: SANGER: Inhibition of human EW-11 cell growth in a cell viability assay.

EW-16 = type: functional, cell-based, Homo sapiens
Description: SANGER: Inhibition of human EW-16 cell growth in a cell viability assay.

GB-1 = type: functional, cell-based, Homo sapiens
Description: SANGER: Inhibition of human GB-1 cell growth in a cell viability assay.

GI-1 = type: functional, cell-based, Homo sapiens
Description: SANGER: Inhibition of human GI-1 cell growth in a cell viability assay.

GI-ME-N = type: functional, cell-based, Homo sapiens
Description: SANGER: Inhibition of human GI-ME-N cell growth in a cell viability assay.

GOTO = type: functional, cell-based, Homo sapiens
Description: SANGER: Inhibition of human GOTO cell growth in a cell viability assay.

GR-ST = type: functional, cell-based, Homo sapiens
Description: SANGER: Inhibition of human GR-ST cell growth in a cell viability assay.

GT3TKB = type: functional, cell-based, Homo sapiens
Description: SANGER: Inhibition of human GT3TKB cell growth in a cell viability assay.

HL-60 = type: functional, cell-based, Homo sapiens
Description: SANGER: Inhibition of human HL-60 cell growth in a cell viability assay.

HOP-62 = type: functional, cell-based, Homo sapiens
Description: SANGER: Inhibition of human HOP-62 cell growth in a cell viability assay.

KARPAS-45 = type: functional, cell-based, Homo sapiens
Description: SANGER: Inhibition of human KARPAS-45 cell growth in a cell viability assay.

KE-37 = type: functional, cell-based, Homo sapiens
Description: SANGER: Inhibition of human KE-37 cell growth in a cell viability assay.

KGN = type: functional, cell-based, Homo sapiens
Description: SANGER: Inhibition of human KGN cell growth in a cell viability assay.

KLE = type: functional, cell-based; details: Homo sapiens
Description: SANGER: Inhibition of human KLE cell growth in a cell viability assay.

KS-1 = type: functional, cell-based; details: Homo sapiens
Description: SANGER: Inhibition of human KS-1 cell growth in a cell viability assay.

LAN-6 = type: functional, cell-based, Homo sapiens
Description: SANGER: Inhibition of human LAN-6 cell growth in a cell viability assay.

LB771-HNC = type: functional, cell-based; details: Homo sapiens
Description: SANGER: Inhibition of human LB771-HNC cell growth in a cell viability assay.

LS-1034 = type: functional, cell-based, Homo sapiens
Description: SANGER: Inhibition of human LS-1034 cell growth in a cell viability assay.

Lu-65 = type: functional, cell-based, Homo sapiens
Description: SANGER: Inhibition of human LU-65 cell growth in a cell viability assay.

MC116 = type: functional, cell-based, Homo sapiens
Description: SANGER: Inhibition of human MC116 cell growth in a cell viability assay.

MMAC-SF = type: functional, cell-based; details: Homo sapiens
Description: SANGER: Inhibition of human MMAC-SF cell growth in a cell viability assay.

MOLT-16 = type: functional, cell-based, Homo sapiens
Description: SANGER: Inhibition of human MOLT-16 cell growth in a cell viability assay.

MPP-89 = type: functional, cell-based, Homo sapiens
Description: SANGER: Inhibition of human MPP-89 cell growth in a cell viability assay.

MZ2-MEL = type: functional, cell-based, Homo sapiens
Description: SANGER: Inhibition of human MZ2-MEL cell growth in a cell viability assay.

NB5 = type: functional, cell-based, Homo sapiens
Description: SANGER: Inhibition of human NB5 cell growth in a cell viability assay.

NB6 = type: functional, cell-based, Homo sapiens
Description: SANGER: Inhibition of human NB6 cell growth in a cell viability assay.

NCI-H1304 = type: functional, cell-based, Homo sapiens
Description: SANGER: Inhibition of human NCI-H1304 cell growth in a cell viability assay.

NCI-H1395 = type: functional, cell-based, Homo sapiens
Description: SANGER: Inhibition of human NCI-H1395 cell growth in a cell viability assay.

NCI-H2126 = type: functional, cell-based, Homo sapiens
Description: SANGER: Inhibition of human NCI-H2126 cell growth in a cell viability assay.

NCI-H747 = type: functional, cell-based, Homo sapiens
Description: SANGER: Inhibition of human NCI-H747 cell growth in a cell viability assay.

NKM-1 = type: functional, cell-based, Homo sapiens
Description: SANGER: Inhibition of human NKM-1 cell growth in a cell viability assay.

OCUB-M = type: functional, cell-based; details: Homo sapiens
Description: SANGER: Inhibition of human OCUB-M cell growth in a cell viability assay.

OVCAR-4 = type: functional, cell-based, Homo sapiens
Description: SANGER: Inhibition of human OVCAR-4 cell growth in a cell viability assay.

RCC10RGB = type: functional, cell-based, Homo sapiens
Description: SANGER: Inhibition of human RCC10RGB cell growth in a cell viability assay.

RXF 393 = type: functional, cell-based, Homo sapiens
Description: SANGER: Inhibition of human RXF393 cell growth in a cell viability assay.

SF-126 = type: functional, cell-based, Homo sapiens
Description: SANGER: Inhibition of human SF126 cell growth in a cell viability assay.

SK-MEL-1 = type: functional, cell-based, Homo sapiens
Description: SANGER: Inhibition of human SK-MEL-1 cell growth in a cell viability assay.

SNU-C2B = type: functional, cell-based; details: Homo sapiens
Description: SANGER: Inhibition of human SNU-C2B cell growth in a cell viability assay.

ALL-PO = type: functional, cell-based, Homo sapiens
Description: SANGER: Inhibition of human ALL-PO cell growth in a cell viability assay.

BB49-HNC = type: functional, cell-based, Homo sapiens
Description: SANGER: Inhibition of human BB49-HNC cell growth in a cell viability assay.

BE-13 = type: functional, cell-based, Homo sapiens
Description: SANGER: Inhibition of human BE-13 cell growth in a cell viability assay.

C2BBe1 = type: functional, cell-based, Homo sapiens
Description: SANGER: Inhibition of human C2BBe1 cell growth in a cell viability assay.

TE-10 = type: functional, cell-based, Homo sapiens
Description: SANGER: Inhibition of human TE-10 cell growth in a cell viability assay.

TGBC24TKB = type: functional, cell-based; details: Homo sapiens
Description: SANGER: Inhibition of human TGBC24TKB cell growth in a cell viability assay.

VA-ES-BJ = type: functional, cell-based, Homo sapiens
Description: SANGER: Inhibition of human VA-ES-BJ cell growth in a cell viability assay.

no-11 = type: functional, cell-based, Homo sapiens
Description: SANGER: Inhibition of human no-11 cell growth in a cell viability assay.

COLO-684 = type: functional, cell-based, Homo sapiens
Description: SANGER: Inhibition of human COLO-684 cell growth in a cell viability assay.

SH-4 = type: functional, cell-based; details: Homo sapiens
Description: SANGER: Inhibition of human SH-4 cell growth in a cell viability assay.

## Cc1ccc(C(=O)Nc2ccc(CN3CCN(C)CC3)c(C(F)(F)F)c2)cc1C#Cc1cnc2cccnn12 [PONATINIB]
COR-L88; Homo sapiens, COR-L88
  IC50: > 512 nM
DJM-1; Homo sapiens, DJM-1
  IC50: > 512 nM
DMS-114; Homo sapiens, DMS-114
  IC50: > 512 nM
EW-11; Homo sapiens, EW-11
  IC50: > 512 nM
EW-16; Homo sapiens, EW-16
  IC50: > 512 nM
GB-1; Homo sapiens, GB-1
  IC50: 125 nM
GI-1; Homo sapiens, GI-1
  IC50: > 512 nM
GI-ME-N; Homo sapiens, GI-ME-N
  IC50: > 512 nM
GOTO; Homo sapiens, GOTO
  IC50: > 512 nM
GR-ST; Homo sapiens, GR-ST
  IC50: > 512 nM
GT3TKB; Homo sapiens, GT3TKB
  IC50: > 512 nM
HL-60; Homo sapiens, HL-60
  IC50: > 512 nM
HOP-62; Homo sapiens, HOP-62
  IC50: 361 nM
KARPAS-45; Homo sapiens, KARPAS-45
  IC50: 489 nM
KE-37; Homo sapiens, KE-37
  IC50: > 512 nM
KGN; Homo sapiens, KGN
  IC50: > 512 nM
KLE
  IC50: > 512 nM
KS-1
  IC50: > 512 nM
LAN-6; Homo sapiens, LAN-6
  IC50: > 512 nM
LB771-HNC
  IC50: > 512 nM
LS-1034; Homo sapiens, LS-1034
  IC50: > 512 nM
Lu-65; Homo sapiens, Lu-65
  IC50: > 512 nM
MC116; Homo sapiens, MC116
  IC50: > 512 nM
MMAC-SF
  IC50: > 512 nM
MOLT-16; Homo sapiens, MOLT-16
  IC50: > 512 nM
MPP-89; Homo sapiens, MPP-89
  IC50: 169 nM
MZ2-MEL; Homo sapiens, MZ2-MEL
  IC50: > 512 nM
NB5; Homo sapiens, NB5
  IC50: > 512 nM
NB6; Homo sapiens, NB6
  IC50: > 512 nM
NCI-H1304; Homo sapiens, NCI-H1304
  IC50: > 512 nM
NCI-H1395; Homo sapiens, NCI-H1395
  IC50: > 512 nM
NCI-H2126; Homo sapiens, NCI-H2126
  IC50: > 512 nM
NCI-H747; Homo sapiens, NCI-H747
  IC50: 421 nM
NKM-1; Homo sapiens, NKM-1
  IC50: 6.55 nM
OCUB-M
  IC50: > 512 nM
OVCAR-4; Homo sapiens, OVCAR-4
  IC50: 416 nM
RCC10RGB; Homo sapiens, RCC10RGB
  IC50: > 512 nM
RXF 393; Homo sapiens, RXF 393
  IC50: > 512 nM
SF-126; Homo sapiens, SF-126
  IC50: 171 nM
SK-MEL-1; Homo sapiens, SK-MEL-1
  IC50: > 512 nM
SNU-C2B
  IC50: > 512 nM
ALL-PO; Homo sapiens, ALL-PO
  IC50: 124 nM
BB49-HNC; Homo sapiens, BB49-HNC
  IC50: > 512 nM
BE-13; Homo sapiens, BE-13
  IC50: 2.59 nM
C2BBe1; Homo sapiens, C2BBe1
  IC50: > 512 nM
TE-10; Homo sapiens, TE-10
  IC50: > 512 nM
TGBC24TKB
  IC50: > 512 nM
VA-ES-BJ; Homo sapiens, VA-ES-BJ
  IC50: > 512 nM
no-11; Homo sapiens
  IC50: > 512 nM
COLO-684; Homo sapiens, COLO-684
  IC50: > 512 nM

## Nc1ccccc1NC(=O)c1ccc(CNC(=O)OCc2cccnc2)cc1 [ENTINOSTAT]
COR-L88; Homo sapiens, COR-L88
  IC50: 230 nM
DJM-1; Homo sapiens, DJM-1
  IC50: 3600 nM
DMS-114; Homo sapiens, DMS-114
  IC50: > 5000 nM
EW-11; Homo sapiens, EW-11
  IC50: > 5000 nM
EW-16; Homo sapiens, EW-16
  IC50: 1930 nM
GB-1; Homo sapiens, GB-1
  IC50: 1940 nM
GI-1; Homo sapiens, GI-1
  IC50: 2930 nM
GI-ME-N; Homo sapiens, GI-ME-N
  IC50: 4060 nM
GOTO; Homo sapiens, GOTO
  IC50: 951 nM
GR-ST; Homo sapiens, GR-ST
  IC50: 1570 nM
GT3TKB; Homo sapiens, GT3TKB
  IC50: 4330 nM
HL-60; Homo sapiens, HL-60
  IC50: 543 nM
HOP-62; Homo sapiens, HOP-62
  IC50: 484 nM
KARPAS-45; Homo sapiens, KARPAS-45
  IC50: 278 nM
KE-37; Homo sapiens, KE-37
  IC50: 643 nM
KGN; Homo sapiens, KGN
  IC50: 2770 nM
KS-1
  IC50: 881 nM
LAN-6; Homo sapiens, LAN-6
  IC50: 2020 nM
LB771-HNC
  IC50: > 5000 nM
LS-1034; Homo sapiens, LS-1034
  IC50: > 5000 nM
Lu-65; Homo sapiens, Lu-65
  IC50: 4150 nM
MC116; Homo sapiens, MC116
  IC50: 1440 nM
MMAC-SF
  IC50: > 5000 nM
MOLT-16; Homo sapiens, MOLT-16
  IC50: 410 nM
MPP-89; Homo sapiens, MPP-89
  IC50: 2330 nM
MZ2-MEL; Homo sapiens, MZ2-MEL
  IC50: > 5000 nM
NB5; Homo sapiens, NB5
  IC50: 1660 nM
NB6; Homo sapiens, NB6
  IC50: 3560 nM
NCI-H1304; Homo sapiens, NCI-H1304
  IC50: 3010 nM
NCI-H1395; Homo sapiens, NCI-H1395
  IC50: > 5000 nM
NCI-H2126; Homo sapiens, NCI-H2126
  IC50: > 5000 nM
NCI-H747; Homo sapiens, NCI-H747
  IC50: 3050 nM
NKM-1; Homo sapiens, NKM-1
  IC50: 109 nM
OCUB-M
  IC50: 1210 nM
OVCAR-4; Homo sapiens, OVCAR-4
  IC50: 1130 nM
RCC10RGB; Homo sapiens, RCC10RGB
  IC50: > 5000 nM
RXF 393; Homo sapiens, RXF 393
  IC50: > 5000 nM
SF-126; Homo sapiens, SF-126
  IC50: 2330 nM
SH-4
  IC50: 1020 nM
SK-MEL-1; Homo sapiens, SK-MEL-1
  IC50: > 5000 nM
ALL-PO; Homo sapiens, ALL-PO
  IC50: 63.6 nM
BB49-HNC; Homo sapiens, BB49-HNC
  IC50: 2920 nM
BE-13; Homo sapiens, BE-13
  IC50: 497 nM
C2BBe1; Homo sapiens, C2BBe1
  IC50: > 5000 nM
TE-10; Homo sapiens, TE-10
  IC50: > 5000 nM
VA-ES-BJ; Homo sapiens, VA-ES-BJ
  IC50: > 5000 nM
no-11; Homo sapiens
  IC50: > 5000 nM
COLO-684; Homo sapiens, COLO-684
  IC50: > 5000 nM

## CC(C)C[C@@H](C=O)NC(=O)[C@H](CC(C)C)NC(=O)[C@H](CC(C)C)NC(=O)OCc1ccccc1 [MG-132] (Cbz-Leu-Leu-Leu-aldehyde)
COR-L88; cor-l88
  IC50: > 1000 nM
DJM-1; djm-1
  IC50: > 1000 nM
DMS-114; dms-114
  IC50: > 1000 nM
EW-11; ew-11
  IC50: > 1000 nM
EW-16; ew-16
  IC50: > 1000 nM
GB-1; gb-1
  IC50: 721 nM and > 1000 nM
GI-1; gi-1
  IC50: > 1000 nM
GI-ME-N; gi-me-n
  IC50: 193 nM and > 1000 nM
GOTO; Homo sapiens, GOTO
  IC50: > 1000 nM
GOTO; goto
  IC50: > 1000 nM
GR-ST; gr-st
  IC50: > 1000 nM
GT3TKB; gt3tkb
  IC50: > 1000 nM
HL-60; hl-60
  IC50: > 1000 nM
HOP-62; hop-62
  IC50: 109 nM and > 1000 nM
KARPAS-45; karpas-45
  IC50: > 1000 nM
KE-37; ke-37
  IC50: 133 nM and 639 nM
KGN; Homo sapiens, KGN
  IC50: > 1000 nM
KGN; kgn
  IC50: > 1000 nM
KLE
  IC50: 313 nM
LAN-6; lan-6
  IC50: 313 nM and > 1000 nM
LS-1034; ls-1034
  IC50: > 1000 nM
Lu-65; lu-65
  IC50: > 1000 nM
MC116; mc116
  IC50: > 1000 nM
MOLT-16; molt-16
  IC50: 295 nM and > 1000 nM
MPP-89; mpp-89
  IC50: > 1000 nM
MZ2-MEL; mz2-mel
  IC50: 176 nM and > 1000 nM
NB5; nb5
  IC50: > 1000 nM
NB6; nb6
  IC50: > 1000 nM
NCI-H1304; Homo sapiens, NCI-H1304
  IC50: > 1000 nM
NCI-H1304; nci-h1304
  IC50: > 1000 nM
NCI-H1395; Homo sapiens, NCI-H1395
  IC50: > 1000 nM
NCI-H1395; nci-h1395
  IC50: > 1000 nM
NCI-H2126; nci-h2126
  IC50: 627 nM and > 1000 nM
NCI-H747; Homo sapiens, NCI-H747
  IC50: 371 nM
NCI-H747; nci-h747
  IC50: 713 nM
NKM-1; nkm-1
  IC50: > 1000 nM
OVCAR-4; ovcar-4
  IC50: 109 nM and > 1000 nM
RCC10RGB; Homo sapiens, RCC10RGB
  IC50: > 1000 nM
RCC10RGB; rcc10rgb
  IC50: > 1000 nM
RXF 393; rxf 393
  IC50: 250 nM and > 1000 nM
SF-126; sf-126
  IC50: 990 nM and > 1000 nM
SK-MEL-1; Homo sapiens, SK-MEL-1
  IC50: > 1000 nM
SK-MEL-1; sk-mel-1
  IC50: > 1000 nM
SNU-C2B
  IC50: 707 nM
ALL-PO; all-po
  IC50: > 1000 nM
BB49-HNC; bb49-hnc
  IC50: 491 nM and > 1000 nM
BE-13; be-13
  IC50: > 1000 nM and 562 nM
C2BBe1; c2bbe1
  IC50: 279 nM and > 1000 nM
TE-10; te-10
  IC50: 964 nM and > 1000 nM
TGBC24TKB
  IC50: > 1000 nM
VA-ES-BJ; va-es-bj
  IC50: 223 nM and > 1000 nM
no-11
  IC50: > 1000 nM
COLO-684; colo-684
  IC50: 907 nM and > 1000 nM
